Broadly, the melting point is the temperature of the solid-liquid transition.

Counter-ions that a name gives are not always drawn.

Regarding `CN(Cc1ccc(C(=O)O)cc1)c1nc(-c2ccc(OCc3ccc(C4CCCCC4)cc3)cc2)cs1.CS(=O)(=O)O`, the melting point is 175 °C (dec.).
Take `CN(Cc1ccc(C2CCCCC2)cc1)c1ccc(-c2csc(N(C)Cc3ccc(C(=O)[O-])cc3)n2)cc1.[K+]`: the melting point was 240 °C.
`CN(Cc1ccc(C2CCCCC2)cc1)c1ccc(-c2csc(N(C)Cc3ccc(C(=O)O)cc3)n2)cc1.CS(=O)(=O)O` returned a melting point of 167 to 170 °C.
Regarding `CN(Cc1ccc(C2CCCCC2)cc1)c1ccc(-c2csc(N(C)Cc3ccc(C(=O)O)cc3)n2)cc1.O=S(=O)(O)O`, the melting point was 130 °C (dec.).
As for `CN(c1ccc(C(=O)O)cc1)c1nc(-c2ccc(NCc3ccc(C4CCCCC4)cc3)cc2)cs1.CS(=O)(=O)O`, the figure is 231 to 233 °C; as for `CN(c1ccc(C(=O)O)cc1)c1nc(-c2ccc(NCc3ccc(C4CCCCC4)cc3)cc2)cs1.O=S(=O)(O)O`, 239 °C (dec.); as for `CN(Cc1ccc(C(=O)O)cc1)c1nc(-c2ccc(OCc3ccc(C4CCCCC4)cc3)cc2)cs1.O=S(=O)(O)O`, 182 to 183 °C.
As to `CC(C)N(c1ccc(C(=O)O)cc1)c1nc(-c2ccc(NC(=O)c3ccc(N4CCOCC4)cc3)cc2)cs1.Cl`, the melting point was 230 °C (dec.).
As for `CC(C)N(c1cccc(C(=O)O)c1)c1nc(-c2ccc(NC(=O)c3ccc(N4CCCCC4)cc3)cc2)cs1.Cl`, the figure is 220 °C (dec.).
`CC(C)N(c1cccc(C(=O)O)c1)c1nc(-c2ccc(NC(=O)c3ccc(N4CCOCC4)cc3)cc2)cs1.Cl`: the melting point was 230 °C (dec.).
Then `CC(C)N(c1ccc(C(=O)O)cc1)c1nc(-c2ccc(NC(=O)c3ccc(N4CCCCC4)cc3)cc2)cs1.Cl`, with 230 °C (dec.).
As for `CC1CCN(c2ccc(C(=O)Nc3ccc(-c4csc(N(c5ccc(C(=O)O)cc5)C(C)C)n4)cc3)cc2)CC1.Cl`, the melting point was 230 °C (dec.).
`CC1CC(C)CN(c2ccc(C(=O)Nc3ccc(-c4csc(N(c5ccc(C(=O)O)cc5)C(C)C)n4)cc3)cc2)C1.Cl` (centres unmarked) registered a melting point of 152 to 160 °C.
Then `CC(C)N(c1ccc(C(=O)O)cc1)c1nc(-c2ccc(NC(=O)c3ccc(N4C[C@@H](C)O[C@@H](C)C4)cc3)cc2)cs1.Cl`, with 230 °C (dec.); and `CC(C)N(c1ccc(C(=O)O)c(Cl)c1)c1nc(-c2ccc(NC(=O)c3ccc(N4CCCCC4)cc3)cc2)cs1.Cl`, with 220 °C (dec.).
As for `CC(C)N(c1ccc(C(=O)O)c(Cl)c1)c1nc(-c2ccc(NC(=O)c3ccc(N4CCOCC4)cc3)cc2)cs1.Cl`, the figure is 220 °C (dec.); as for `CC(C)N(Cc1ccc(C(=O)O)cc1)c1nc(-c2ccc(OCc3cccc(N4CCCCC4)c3)cc2)cs1` (as salt: hydrochloride) [Example 127, 4-((N-isopropyl-N-(4-(4-(3-piperidinobenzyloxy)phenyl)-2-thiazolyl)amino)methyl)benzoic acid dihydrochloride], 135 to 140 °C; as for `O=C(O)c1ccc(N(CCC2CCCCC2)c2nc(-c3nc4cc(OCc5ccc(Cl)c(Cl)c5)ccc4[nH]3)cs2)cc1` (as salt: hydrochloride) [Example 185, 4-(N-(2-cyclohexylethyl)-N-(4-(5-(3,4-dichlorobenzyloxy)-2-benzoimidazolyl)-2-thiazolyl)amino)benzoic acid hydrochloride], 173 to 176 °C.
On to `O=C(O)c1ccc(Nc2nc(-c3nc4cc(OCc5ccc(Cl)c(Cl)c5)ccc4[nH]3)cs2)cc1` (as salt: hydrochloride) [Example 186, 4-(4-(5-(3,4-dichlorobenzyloxy)-2-benzoimidazolyl)-2-thiazolylamino)benzoic acid hydrochloride], for which the melting point was 220 °C.
With `CN(Cc1ccc(C(=O)O)cc1)c1nc(-c2ccc(OCc3ccc(C4CCCCC4)cc3)cc2)cs1` (as salt: hydrochloride) [Example 252, 4-((N-(4-(4-(4-cyclohexylbenzyloxy)phenyl)-2-thiazolyl)-N-methylamino)methyl)benzoic acid hydrochloride], the melting point is 174 °C (dec.).
For the compound `CN(c1ccc(C(=O)O)cc1)c1nc(-c2ccc(NCc3ccc(C4CCCCC4)cc3)cc2)cs1` (as salt: hydrochloride) [Example 258, 4-(N-(4-(4-(4-cyclohexylbenzylamino)phenyl)-2-thiazolyl)-N-methylamino)benzoic acid hydrochloride], the melting point is 234 to 236 °C.
Turning to `CN(Cc1ccc([C@H]2CCC[C@@H](O)C2)cc1)c1ccc(-c2csc(N(C)Cc3ccc(C(=O)O)cc3)n2)cc1` (relative stereo) [Example 205, cis-4-((N-(4-(4-(N-(4-(3-hydroxycyclohexyl)benzyl)-N-methylamino)phenyl)-2-thiazolyl)-N-methylamino)methyl)benzoic acid], the melting point was found to be 220 °C.
With `CN(Cc1ccc([C@H]2CCC[C@H](O)C2)cc1)c1ccc(-c2csc(N(C)Cc3ccc(C(=O)O)cc3)n2)cc1` (relative stereo) [Example 206, trans-4-((N-(4-(4-(N-(4-(3-hydroxycyclohexyl)benzyl)-N-methylamino)phenyl)-2-thiazolyl)-N-methylamino)methyl)benzoic acid], the melting point is 159 to 161 °C.
Then `O=C(O)c1ccc(Nc2nc(-c3ccc(NC(=O)c4ccccc4)cc3)cs2)cc1` [Example 4, 4-(4-(4-benzoylaminophenyl)-2-thiazolylamino)benzoic acid], with 250 °C (dec.); and `CC(C)(C)c1ccc(C(=O)Nc2ccc(-c3csc(Nc4ccc(C(=O)O)cc4)n3)cc2)cc1` [Example 5, 4-(4-(4-(4-tert-butylbenzoylamino)phenyl)-2-thiazolylamino)benzoic acid], with 250 °C (dec.).
Then `O=C(O)c1ccc(Nc2nc(-c3ccc(NC(=O)c4ccc(C5CCCCC5)cc4)cc3)cs2)cc1` [Example 6, 4-(4-(4-(4-cyclohexylbenzoylamino)phenyl)-2-thiazolylamino)benzoic acid], with 250 °C (dec.).
Take `CCN(c1ccc(C(=O)O)cc1)c1nc(-c2ccc(NC(=O)c3ccccc3)cc2)cs1` [Example 7, 4-(N-(4-(4-benzoylaminophenyl)-2-thiazolyl)-N-ethylamino)benzoic acid]: the melting point was 250 °C (dec.).
As for `CCN(c1ccc(C(=O)O)cc1)c1nc(-c2ccc(NC(=O)c3ccc(C4CCCCC4)cc3)cc2)cs1` [Example 8, 4-(N-(4-(4-(4-cyclohexylbenzoylamino)phenyl)-2-thiazolyl)-N-ethylamino)benzoic acid], the figure is 250 °C (dec.); as for `CC(C)N(c1ccc(C(=O)O)cc1)c1nc(-c2ccc(NC(=O)c3ccccc3)cc2)cs1` [Example 9, 4-(N-(4-(4-benzoylaminophenyl)-2-thiazolyl)-N-isopropylamino)benzoic acid], 234 to 236 °C.
Turning to `CC(C)N(c1ccc(C(=O)O)cc1)c1nc(-c2ccc(NC(=O)c3ccc(C4CCCCC4)cc3)cc2)cs1` [Example 10, 4-(N-(4-(4-(4-cyclohexylbenzoylamino)phenyl)-2-thiazolyl)-N-isopropylamino)benzoic acid], the melting point is 230 °C (dec.).
In the case of `CCN(c1ccc(C(=O)O)cc1)c1nc(-c2ccc(NC(=O)C3CCCCC3)cc2)cs1` [Example 11, 4-(N-(4-(4-(cyclohexanecarbonylamino)phenyl)-2-thiazolyl)-N-ethylamino)benzoic acid], the melting point is 250 °C (dec.).
In the case of `CC(C)N(c1ccc(C(=O)O)cc1)c1nc(-c2ccc(NC(=O)C3CCCCC3)cc2)cs1` [Example 12, 4-(N-(4-(4-(cyclohexanecarbonylamino)phenyl)-2-thiazolyl)-N-isopropylamino)benzoic acid], the melting point is 230 °C (dec.).
As for `CC(C)CN(c1ccc(C(=O)O)cc1)c1nc(-c2ccc(NC(=O)C3CCCCC3)cc2)cs1` [Example 13, 4-(N-(4-(4-(cyclohexanecarbonylamino)phenyl)-2-thiazolyl)-N-isobutylamino)benzoic acid], the figure is 231 to 232 °C; as for `O=C(O)CN(c1ccc(C(=O)O)cc1)c1nc(-c2ccc(NC(=O)C3CCCCC3)cc2)cs1` [Example 14, 4-(N-carboxymethyl-N-(4-(4-(cyclohexanecarbonylamino)phenyl)-2-thiazolyl)amino)benzoic acid], 210 °C (dec.); as for `CC(C)CN(c1ccc(C(=O)O)cc1)c1nc(-c2ccc(NC(=O)c3ccccc3)cc2)cs1` [Example 15, 4-(N-(4-(4-benzoylaminophenyl)-2-thiazolyl)-N-isobutylamino)benzoic acid], 234 to 235 °C.
`O=C(O)CN(c1ccc(C(=O)O)cc1)c1nc(-c2ccc(NC(=O)c3ccccc3)cc2)cs1` [Example 16, 4-(N-(4-(4-benzoylaminophenyl)-2-thiazolyl)-N-carboxymethylamino)benzoic acid]: the melting point is 210 °C (dec.).
As for `CC(C)CN(c1ccc(C(=O)O)cc1)c1nc(-c2ccc(NC(=O)c3ccc(C4CCCCC4)cc3)cc2)cs1` [Example 17, 4-(N-(4-(4-(4-cyclohexylbenzoylamino)phenyl)-2-thiazolyl)-N-isobutylamino)benzoic acid], the figure is 230 °C (dec.); as for `O=C(O)CN(c1ccc(C(=O)O)cc1)c1nc(-c2ccc(NC(=O)c3ccc(C4CCCCC4)cc3)cc2)cs1` [Example 18, 4-(N-carboxymethyl-N-(4-(4-(4-cyclohexylbenzoylamino)phenyl)-2-thiazolyl)amino)benzoic acid], 230 °C (dec.).
As for `CN(c1ccc(C(=O)O)cc1)c1nc(-c2ccc(NC(=O)c3ccc(C4CCCCC4)cc3)cc2)cs1` [Example 19, 4-(N-(4-(4-(4-cyclohexylbenzoylamino)phenyl)-2-thiazolyl)-N-methylamino)benzoic acid], the melting point is 250 °C (dec.).
Turning to `CN(c1ccc(C(=O)O)cc1)c1nc(-c2ccc(NC(=O)c3ccc(C(C)(C)C)cc3)cc2)cs1` [Example 20, 4-(N-(4-(4-(4-tert-butylbenzoylamino)phenyl)-2-thiazolyl)-N-methylamino)benzoic acid], the melting point is 250 °C (dec.).
Then `O=C(O)c1ccc(Nc2nc(-c3ccc(OCc4ccc(C5CCCCC5)cc4)cc3)cs2)cc1` [Example 21, 4-(4-(4-(4-cyclohexylbenzyloxy)phenyl)-2-thiazolylamino)benzoic acid], with 250 °C (dec.).

These data come from patent publication US7163952B2, “Azole compound and medicinal use thereof” (Japan Tobacco Inc., priority 2001, dated 2007).
